Values belong to the compound of their own block, whether it stands above or below them.
Tests used:
[1] = molecular target: T1, Trace amine-associated receptor 1 (Homo sapiens, UniProt Q96RJ0); test: Agonist activity at TAAR1 (unknown origin) transfected in HEK293 cells co-transfected with Galphaq-Nluc, Gbeta1/3 and Ggamma1/2/9-mVenus assessed as Galphaq-Gbeta/gamma dissociation by BRET assay; type: functional, cell-based
T1 sequence (Q96RJ0 whole entry): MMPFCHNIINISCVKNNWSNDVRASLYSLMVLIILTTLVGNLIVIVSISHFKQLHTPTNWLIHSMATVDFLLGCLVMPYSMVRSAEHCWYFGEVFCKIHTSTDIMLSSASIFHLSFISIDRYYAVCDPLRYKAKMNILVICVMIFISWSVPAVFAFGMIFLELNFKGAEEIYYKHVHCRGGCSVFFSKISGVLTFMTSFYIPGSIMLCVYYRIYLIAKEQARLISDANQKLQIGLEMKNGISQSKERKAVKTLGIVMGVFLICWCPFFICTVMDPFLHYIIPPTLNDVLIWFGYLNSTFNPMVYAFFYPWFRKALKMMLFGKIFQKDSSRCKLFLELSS

[2] = Half-life in Sprague-Dawley rat at 2 mg/kg, iv measured after 8 hrs by LC-MS/MS analysis; type: ADME, organism-based; details: in vivo
[3] = Tmax in Sprague-Dawley rat at 2 mg/kg, iv measured after 8 hrs by LC-MS/MS analysis; type: ADME, organism-based; details: in vivo
[4] = Cmax in Sprague-Dawley rat at 2 mg/kg, iv measured after 8 hrs by LC-MS/MS analysis; type: ADME, organism-based; details: in vivo
[5] = AUC (0 to t) in Sprague-Dawley rat at 2 mg/kg, iv measured after 8 hrs by LC-MS/MS analysis; type: ADME, organism-based; details: in vivo
[6] = AUC (0 to infinity) in Sprague-Dawley rat at 2 mg/kg, iv measured after 8 hrs by LC-MS/MS analysis; type: ADME, organism-based; details: in vivo
[7] = Clearance in Sprague-Dawley rat at 2 mg/kg, iv measured after 8 hrs by LC-MS/MS analysis; type: ADME, organism-based; details: in vivo
[8] = Half-life in Sprague-Dawley rat at 10 mg/kg, po measured after 8 hrs by LC-MS/MS analysis; type: ADME, organism-based; details: in vivo
[9] = Tmax in Sprague-Dawley rat at 10 mg/kg, po measured after 8 hrs by LC-MS/MS analysis; type: ADME, organism-based; details: in vivo
[10] = Cmax in Sprague-Dawley rat at 10 mg/kg, po measured after 8 hrs by LC-MS/MS analysis; type: ADME, organism-based; details: in vivo
[11] = AUC (0 to t) in Sprague-Dawley rat at 10 mg/kg, po measured after 8 hrs by LC-MS/MS analysis; type: ADME, organism-based; details: in vivo
[12] = AUC (0 to infinity) in Sprague-Dawley rat at 10 mg/kg, po measured after 8 hrs by LC-MS/MS analysis; type: ADME, organism-based; details: in vivo
[13] = Oral bioavailability in Sprague-Dawley rat at 10 mg/kg measured after 8 hrs by LC-MS/MS analysis; type: ADME, organism-based; details: in vivo
[14] = Acute toxicity in Kunming mouse assessed as abnormalities at 1000 mg/kg, po administered as single dose and measured after 7 days; type: organism-based; details: in vivo, 168 h, time 7 day
[15] = Acute toxicity in Kunming mouse assessed as animal death at 1000 mg/kg, po administered as single dose and measured after 7 days; type: organism-based; details: in vivo, 168 h, time 7 day
[16] = Acute toxicity in Kunming mouse assessed as effect on body weight at 1000 mg/kg, po administered as single dose and measured after 7 days; type: organism-based; details: in vivo, 168 h, time 7 day
[17] = Acute toxicity in Kunming mouse assessed as effect on heart co-efficient at 1000 mg/kg, po administered as single dose and measured after 7 days; type: organism-based; details: in vivo, 168 h, time 7 day
[18] = Acute toxicity in Kunming mouse assessed as effect on liver co-efficient at 1000 mg/kg, po administered as single dose and measured after 7 days; type: organism-based; details: in vivo, 168 h, time 7 day
[19] = Acute toxicity in Kunming mouse assessed as effect on spleen co-efficient at 1000 mg/kg, po administered as single dose and measured after 7 days; type: organism-based; details: in vivo, 168 h, time 7 day
[20] = Acute toxicity in Kunming mouse assessed as effect on lung co-efficient at 1000 mg/kg, po administered as single dose and measured after 7 days; type: organism-based; details: in vivo, 168 h, time 7 day
[21] = Acute toxicity in Kunming mouse assessed as effect on kidney co-efficient at 1000 mg/kg, po administered as single dose and measured after 7 days; type: organism-based; details: in vivo, 168 h, time 7 day
[22] = Subacute toxicity in Kunming mouse assessed as abnormalities at 50 mg/kg, po administered every two days for 14 days; type: organism-based; details: in vivo, 336 h, time 14 day
[23] = Subacute toxicity in Kunming mouse assessed as animal death at 50 mg/kg, po administered every two days for 14 days; type: organism-based; details: in vivo, 336 h, time 14 day
[24] = Subacute toxicity in Kunming mouse assessed as effect on body weight at 50 mg/kg, po administered every two days for 14 days; type: organism-based; details: in vivo, 336 h, time 14 day
[25] = Subacute toxicity in Kunming mouse assessed as effect on heart coefficient at 50 mg/kg, po administered every two days for 14 days; type: organism-based; details: in vivo, 336 h, time 14 day
[26] = Subacute toxicity in Kunming mouse assessed as effect on liver coefficient at 50 mg/kg, po administered every two days for 14 days; type: organism-based; details: in vivo, 336 h, time 14 day
[27] = Subacute toxicity in Kunming mouse assessed as effect on spleen coefficient at 50 mg/kg, po administered every two days for 14 days; type: organism-based; details: in vivo, 336 h, time 14 day
[28] = Subacute toxicity in Kunming mouse assessed as effect on lung coefficient at 50 mg/kg, po administered every two days for 14 days; type: organism-based; details: in vivo, 336 h, time 14 day
[29] = Subacute toxicity in Kunming mouse assessed as effect on kidney coefficient at 50 mg/kg, po administered every two days for 14 days; type: organism-based; details: in vivo, 336 h, time 14 day
[30] = Subacute toxicity in Kunming mouse assessed as pathological changes in heart at 50 mg/kg, po administered every two days for 14 days by H and E staining based analysis; type: organism-based; details: in vivo, 336 h, time 14 day
[31] = Subacute toxicity in Kunming mouse assessed as pathological changes in liver at 50 mg/kg, po administered every two days for 14 days by H and E staining based analysis; type: organism-based; details: in vivo, 336 h, time 14 day
[32] = Subacute toxicity in Kunming mouse assessed as pathological changes in spleen at 50 mg/kg, po administered every two days for 14 days by H and E staining based analysis; type: organism-based; details: in vivo, 336 h, time 14 day
[33] = Subacute toxicity in Kunming mouse assessed as pathological changes in lung at 50 mg/kg, po administered every two days for 14 days by H and E staining based analysis; type: organism-based; details: in vivo, 336 h, time 14 day
[34] = Subacute toxicity in Kunming mouse assessed as pathological changes in kidney at 50 mg/kg, po administered every two days for 14 days by H and E staining based analysis; type: organism-based; details: in vivo, 336 h, time 14 day
[35] = Metabolic stability in human liver microsomes assessed as half-life preincubated for 60 mins followed by NADPH addition and measured after 60 mins by LC-MS/MS analysis; type: ADME, Microsome; details: time 120 min
[36] = Metabolic stability in human liver microsomes assessed as intrinsic clearance preincubated for 60 mins followed by NADPH addition and measured after 60 mins by LC-MS/MS analysis; type: ADME, Microsome; details: time 120 min, read-out: CLH
[37] = Aqueous solubility of compound at pH 2.0; type: physicochemical; details: aqueous solution
[38] = Aqueous solubility of compound at pH 7.0; type: physicochemical; details: aqueous solution
[39] = Aqueous solubility of compound at pH 7.4; type: physicochemical; details: aqueous solution
Mus musculus [40] = test: Antipsychotic activity in MK-801 induced male C57BL/6J mouse model assessed as reduction in hyperlocomotion preadministered orally for 30 mins followed by MK801 administration for 30 mins and measured after 10 mins by open field test; type: functional, organism-based; details: dose 1-10 mg/kg, route po, time 70.0 min
Mus musculus [41] = test: Antipsychotic activity in MK-801 induced male C57BL/6J mouse model assessed as locomotion at 10 mg/kg, po preadministered for 30 mins followed by MK801 administration for 30 mins and measured after 10 mins by open field test (reference value: 8631.5 cm); type: functional; details: time 70 min, 1.167 h
[42] = Toxicity in male C57BL/6J mouse assessed as effect on locomotion at 1 to 10 mg/kg, po administered for 30 mins and measured after 10 mins by open field test; type: organism-based; details: in vivo, 40 min, dose 1-10 mg/kg
Mus musculus [43] = test: Antipsychotic activity in MK-801 induced male C57BL/6J mouse model assessed as improvement in recognition deficit performance by measuring discrimination index at 3 mg/kg, po pre-administered with MK-801 as twice daily days for 7 days followed by 1 week of washout period and measured after 1 hrs of compound administration by novel object recognition test (reference value: 0.37); type: functional
[44] = Toxicity in male C57BL/6J mouse assessed as catalepsy performance at 30 mg/kg, ip measured after 30 to 60 mins by bar test; type: organism-based; details: in vivo, time 30-60 min
[45] = molecular target: T1, Trace amine-associated receptor 1; test: Agonist activity at TAAR1 (unknown origin) transfected in HEK293 cells co-transfected with GalphaS-Nluc, Gbeta1/3 and Ggamma1/2/9-mVenus assessed as GalphaS-Gbeta/gamma dissociation by BRET assay; type: functional, cell-based
[46] = molecular target: T2, Trace amine-associated receptor 1 (Homo sapiens) (UniProt Q96RJ0); test: Potency index, ratio of SEP-363856 EC50 to test compound EC50 for agonist activity at TAAR1 (unknown origin) transfected in HEK293 cells co-transfected with GalphaS-Nluc, Gbeta1/3 and Ggamma1/2/9-mVenus assessed as GalphaS-Gbeta/gamma dissociation by BRET assay; type: functional, cell-based; details: filed as agonist
T2 sequence (whole entry): T1 sequence (Q96RJ0 whole entry)

- EC50 [1]: 0.0912 µM
SMILES: N[C@H]1CN(c2ncccc2C(F)(F)F)C[C@@H]1C1CC1

SMILES: COc1cccc(S(=O)(=O)NC[C@@H]2CCCN2)c1.Cl
- half-life [2]: 21 min
- Tmax [3]: 1.8 min
- Cmax [4]: 746 ng/mL
- AUC(0-t) at 8 h [5]: 355 ng·h/mL
- AUC(0-inf) [6]: 356 ng·h/mL
- clearance [7]: 94.1 mL/min/kg
- half-life [8]: 91.8 min
- Tmax [9]: 25.2 min
- Cmax [10]: 63.7 ng/mL
- AUC(0-t) at 8 h [11]: 229 ng·h/mL
- AUC(0-inf) [12]: 240 ng·h/mL
- bioavailability [13]: 13.4%
- Activity [14]: Non-toxic
- Activity [15]: Non-toxic
- Activity [16]: Non-toxic
- Activity [17]: Non-toxic
- Activity [18]: Non-toxic
- Activity [19]: Non-toxic
- Activity [20]: Non-toxic
- Activity [21]: Non-toxic
- Activity [22]: Non-toxic
- Activity [23]: Non-toxic
- Activity [24]: Non-toxic
- Activity [25]: Non-toxic
- Activity [26]: Non-toxic
- Activity [27]: Non-toxic
- Activity [28]: Non-toxic
- Activity [29]: Non-toxic
- Activity [30]: Non-toxic
- Activity [31]: Non-toxic
- Activity [32]: Non-toxic
- Activity [33]: Non-toxic
- Activity [34]: Non-toxic
- half-life [35]: 126 min
- microsomal CLint [36]: 11 µL/min/mg
- solubility [37]: 96.2 mg/mL
- solubility [38]: 65.7 mg/mL
- solubility [39]: 43.3 mg/mL
- Activity (Mus musculus [40]): Dose-dependent-effect
- Activity (Mus musculus [41]): 3917.8 cm
- Activity [42]: Non-toxic
- Activity_index (Mus musculus [43]): 0.48
- Activity [44]: Non-toxic
- EC50 [45]: 0.0061 µM
- EC50 [1]: 0.0148 µM
- Ratio EC50 [46]: 3.5

- EC50 [45]: > 10 µM
- EC50 [1]: > 10 µM
SMILES: O=c1[nH]c2ccc(S(=O)(=O)NC[C@@H]3CCCN3)cc2[nH]1

- EC50 [45]: > 10 µM
- EC50 [1]: > 10 µM
SMILES: O=S(=O)(NC[C@@H]1CCCN1)c1ccc(C(F)(F)F)cc1

- EC50 [45]: > 10 µM
- EC50 [1]: > 10 µM
SMILES: O=S(=O)(NC[C@@H]1CCCN1)c1ccc(Cl)cc1

- EC50 [45]: 0.1 µM
SMILES: CC(C)CC(N)c1nc2ccccc2[nH]1 (centres undefined)

- EC50 [45]: 0.161 µM
SMILES: COc1ccc2c(c1OC)C(=O)OC2Nc1ccccn1 (centres undefined)

- EC50 [45]: > 10 µM
- EC50 [1]: > 10 µM
SMILES: O=S(=O)(NC[C@@H]1CCCN1)c1ccccc1

- EC50 [45]: > 10 µM
- EC50 [1]: > 10 µM
SMILES: O=S(=O)(NC[C@@H]1CCCN1)c1ccc(O)cc1

— ChEMBL document CHEMBL6177995, “In Silico Discovery of Novel Potent Trace Amine-Associated Receptor TAAR1 Agonists as Promising Drug Candidates for the Treatment of Schizophrenia” (J Med Chem, 2025)
